The target of assay [1] is T1, HCV NS3/4A protease complex, BMS strain (UniProt P27958, species not given/STRAIN_BMS).
T1 construct: said of H77 and J4L6S; fused on or other part: three-lysine solubilising tail at the end of NS4A (printed for the H77 and J4L6S constructs; probably the same for BMS)
Kind of assay: FRET peptide assay to monitor HCV NS3/4A proteolytic activity (BMS strain). The format is biochemical, Hepatitis C virus (genotype 1a). To be noted: Table 2, NS3/4A BMS strain, numeric values. The text has this: (§1) HCV […] protease complexes, derived from the BMS strain, H77 strain or J4L6S strain, were generated, as described below. These purified recombinant proteins were generated for use in a homogeneous assay (see below) to provide an indication of how effective compounds of the present disclosure would be in inhibiting HCV NS3 proteolytic activity.
(§2) Serum from an HCV-infected patient was obtained from Dr. T. Wright, San Francisco Hospital. An engineered full-length cDNA (compliment deoxyribonucleic acid) template of the HCV genome (BMS strain) was constructed from DNA fragments obtained by reverse transcription-PCR (RT-PCR) of serum RNA (ribonucleic acid) and using primers selected on the basis of homology between other genotype 1a strains. From the determination of the entire genome sequence, a genotype 1a was assigned to the HCV isolate according to the classification of Simmonds et al. (See Simmonds, P. et al., J. Clin. Microbiol., 31(6), 1493-1503 (1993)). […] The infectious clones, H77 (1a genotype) and J4L6S (1b genotype) were obtained from R. Purcell (NIH) and the sequences are published in GENBANK® (AAB67036, see Yanagi, M. et al., Proc. Natl. Acad. Sci. U.S.A., 94(16):8738-8743 (1997); AF054247, see Yanagi, M. et al., Virology, 244(1):161-172 (1998)).
(§3) The H77 and J4L6S strains were used for production of recombinant NS3/4A protease complexes. DNA encoding the recombinant HCV NS3/4A protease complex (amino acids 1027 to 1711) for these strains were manipulated as described by P. Gallinari et al. (see Gallinari, P. et al, Biochemistry, 38(17):5620-5632 (1999)). Briefly, a three-lysine solubilizing tail was added at the 3′-end of the NS4A coding region. The cysteine in the P1 position of the NS4A-NS4B cleavage site (amino acid 1711) was changed to a glycine to avoid the proteolytic cleavage of the lysine tag. Furthermore, a cysteine to serine mutation was introduced by PCR at amino acid position 1454 to prevent the autolytic cleavage in the NS3 helicase domain. The variant DNA fragment was cloned in the pET21b bacterial expression vector (Novagen) and the NS3/4A complex was expressed in Escherichia. coli strain BL21 (DE3) (Invitrogen) following the protocol described by P. Gallinari et al. (see Gallinari, P. et al., J. Virol., 72(8):6758-6769 (1998)) with modifications. Briefly, the NS3/4A protease complex expression was induced with 0.5 millimolar (mM) Isopropyl β-D-1-thiogalactopyranoside (IPTG) for 22 hours (h) at 20° C. A typical fermentation (1 Liter (L)) yielded approximately 10 grams (g) of wet cell paste. The cells were resuspended in lysis buffer (10 mL/g) consisting of 25 mM N-(2-hydroxyethyl)piperazine-N′-(2-ethane sulfonic acid) (HEPES), pH 7.5, 20% glycerol, 500 mM sodium chloride (NaCl), 0.5% Triton X-100, 1 microgram/milliliter (“μg/mL”) lysozyme, 5 mM magnesium chloride (MgCl2), 1 μg/ml DnaseI, 5 mM β-mercaptoethanol (βME), protease inhibitor-ethylenediamine tetraacetic acid (EDTA) free (Roche), homogenized and incubated for 20 minutes (min) at 4° C. The homogenate was sonicated and clarified by ultra-centrifugation at 235000 g for 1 hour (h) at 4° C. Imidazole was added to the supernatant to a final concentration of 15 mM and the pH adjusted to 8.0. The crude protein extract was loaded on a Nickel-Nitrilotriacetic acid (Ni-NTA) column pre-equilibrated with buffer B (25 mM HEPES, pH 8.0, 20% glycerol, 500 mM NaCl, 0.5% Triton X-100, 15 mM imidazole, 5 mM βME). The sample was loaded at a flow rate of 1 mL/min. The column was washed with 15 column volumes of buffer C (same as buffer B except with 0.2% Triton X-100). The protein was eluted with 5 column volumes of buffer D (same as buffer C except with 200 mM Imidazole).
(§4) NS3/4A protease complex-containing fractions were pooled and loaded on a desalting column Superdex-S200 pre-equilibrated with buffer D (25 mM HEPES, pH 7.5, 20% glycerol, 300 mM NaCl, 0.2% Triton X-100, 10 mM βME). Sample was loaded at a flow rate of 1 mL/min. […]
T1 sequence (P27958 1027-1657, change not shown, one chain of several): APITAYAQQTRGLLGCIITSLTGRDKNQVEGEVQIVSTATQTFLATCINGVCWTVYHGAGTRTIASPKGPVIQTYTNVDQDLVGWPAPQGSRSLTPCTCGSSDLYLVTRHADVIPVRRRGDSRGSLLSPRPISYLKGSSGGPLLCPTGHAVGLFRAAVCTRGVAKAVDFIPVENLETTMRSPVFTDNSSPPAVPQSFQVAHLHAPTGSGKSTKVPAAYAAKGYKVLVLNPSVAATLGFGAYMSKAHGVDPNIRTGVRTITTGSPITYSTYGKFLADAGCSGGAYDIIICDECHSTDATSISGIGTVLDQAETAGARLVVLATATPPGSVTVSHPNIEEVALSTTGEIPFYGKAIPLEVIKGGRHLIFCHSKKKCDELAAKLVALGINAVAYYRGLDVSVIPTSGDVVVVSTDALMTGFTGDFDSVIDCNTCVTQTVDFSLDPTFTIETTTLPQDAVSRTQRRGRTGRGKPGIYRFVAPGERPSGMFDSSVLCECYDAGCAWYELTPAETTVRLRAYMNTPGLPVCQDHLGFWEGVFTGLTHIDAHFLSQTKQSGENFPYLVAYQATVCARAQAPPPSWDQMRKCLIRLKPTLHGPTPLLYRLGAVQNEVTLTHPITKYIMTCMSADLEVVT

Assay [2] deals with T2, HCV NS3/4A protease complex, BMS strain (UniProt P27958, species not given/STRAIN_BMS).
T2 construct: other: BMS strain; said of H77 and J4L6S; fused on or other part: three-lysine solubilising tail at the end of NS4A (printed for the H77 and J4L6S constructs; probably the same for BMS)
The assay is described as above. The format is biochemical, Hepatitis C virus (genotype 1a). Particulars: read-out: IC50 against the NS3/4A BMS strain in the enzyme assay; BMS strain.
Text: as §1, §2, §3, §4
T2 sequence (P27958 1027-1657, change not shown, one chain of several): as above

Like-named read-outs stand apart in the source and are kept apart here.

Regarding `C=C[C@@H]1C[C@]1(NC(=O)[C@@H]1C[C@@](SCCCC)(c2ccc(-c3ccccc3)cc2)CN1C(=O)[C@@H](NC(=O)OC(C)(C)C)C(C)(C)C)C(=O)NS(=O)(=O)C1CC1` [Example 1, tert-butyl (S)-1-((2S,4R)-4-(biphenyl-4-yl)-4-(butylthio)-2-((1R,2S)-1-(cyclopropylsulfonylcarbamoyl)-2-vinylcyclopropylcarbamoyl)pyrrolidin-1-yl)-3,3-dimethyl-1-oxobutan-2-ylcarbamate], the IC50 is 3 nM in assay [1] and 4.6 nM in assay [2].

For the origin of these results see US7964560B2, “Hepatitis C virus inhibitors” (Bristol-Myers Squibb Company, priority 2008, dated 2011).
